Results reported in US8822449B2, “Substituted aminoindanes and analogs thereof, and the pharmaceutical use thereof” (Sanofi, priority 2008, dated 2014).

Each compound was assayed against T1, sodium-proton exchanger of subtype 3 (NHE3) (Homo sapiens, UniProt P48764) (assay: Recovery of intracellular pH (pHi) after acidification in LAP1 cells stably expressing NHE3 (BCECF fluorescence, FLIPR)). Conditions: LAP1 cells stably expressing NHE3; pH recovery after acidification; range 1 is % inhibition at 10 μM; read-out: Activity range (inhibitory effect on NHE3).
T1 construct: expressed in transfected cells
T1 sequence (P48764 26-834): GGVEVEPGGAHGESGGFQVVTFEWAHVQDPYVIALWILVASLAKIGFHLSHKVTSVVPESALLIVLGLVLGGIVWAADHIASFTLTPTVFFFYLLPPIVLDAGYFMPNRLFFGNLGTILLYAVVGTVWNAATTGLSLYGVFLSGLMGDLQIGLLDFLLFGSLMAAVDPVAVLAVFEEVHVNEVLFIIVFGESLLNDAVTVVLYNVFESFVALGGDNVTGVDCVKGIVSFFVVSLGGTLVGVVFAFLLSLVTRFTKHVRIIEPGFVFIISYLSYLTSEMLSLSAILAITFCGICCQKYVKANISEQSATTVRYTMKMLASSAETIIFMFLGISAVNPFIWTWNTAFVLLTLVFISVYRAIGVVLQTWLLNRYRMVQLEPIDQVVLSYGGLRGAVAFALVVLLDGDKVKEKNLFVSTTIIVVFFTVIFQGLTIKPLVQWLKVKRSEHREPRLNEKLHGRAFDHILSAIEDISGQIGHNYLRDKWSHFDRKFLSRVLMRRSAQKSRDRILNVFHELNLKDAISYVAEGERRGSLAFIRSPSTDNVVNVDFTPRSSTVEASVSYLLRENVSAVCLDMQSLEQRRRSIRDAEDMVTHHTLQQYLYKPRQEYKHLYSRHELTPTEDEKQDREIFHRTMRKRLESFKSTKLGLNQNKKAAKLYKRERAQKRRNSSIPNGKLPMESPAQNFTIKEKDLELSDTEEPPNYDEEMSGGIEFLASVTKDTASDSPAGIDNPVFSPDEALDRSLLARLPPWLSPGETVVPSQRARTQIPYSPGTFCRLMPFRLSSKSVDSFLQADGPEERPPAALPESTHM
Assay type: cell-based

IC50 [nM]	inhibition at 10 µM [%]	Compound
< 1000	–	Cc1nnc(C)n1-c1ccc(O[C@H]2c3cc(Cl)cc(Cl)c3C[C@@H]2N2CCCN(C)CC2)c(F)c1 [Example 346, 1-{trans-(1S,2S)-4,6-dichloro-1-[4-(3,5-dimethyl-[1,2,4]triazol-4-yl)-2-fluorophenoxy]indan-2-yl}-4-methyl-[1,4]diazepane]
–	20 to 50	CN(C)C(=O)Cc1ccc(O[C@H]2c3ccccc3CC[C@@H]2N2CCC[C@H](N)C2)cc1 (racemic) [Example 382, 2-{4-[rac-trans-(1,2)-2-((S)-3-aminopiperidin-1-yl)-1,2,3,4-tetrahydronaphthalen-1-yloxy]phenyl}-N,N-dimethylacetamide]
–	20 to 50	CC(=O)Nc1cccc(O[C@H]2c3c(Cl)cc(Cl)cc3C[C@@H]2N(C)C)c1 (racemic) [Example 654, N-[3-(rac-trans-(1,2)-5,7-dichloro-2-dimethylaminoindan-1-yloxy)phenyl]acetamide]
–	20 to 50	Cc1cc(O[C@H]2c3cc(Cl)cc(F)c3C[C@@H]2N2CCNCC2)ccc1S(=O)(=O)C(F)(F)F (racemic) [Example 290, 1-[rac-trans-(1,2)-6-chloro-4-fluoro-1-(3-methyl-4-trifluoromethanesulfonylphenoxy)indan-2-yl]piperazine]
–	20 to 50	CCC(CC)N[C@@H]1Cc2ccccc2[C@H]1Oc1ccc(S(C)(=O)=O)cc1 (racemic) [Example 723, (1-Ethyl-propyl)-[rac-trans-(1,2)-1-(4-methanesulfonyl-phenoxy)-indan-2-yl]-amine]
–	20 to 50	Cc1ccc(O[C@H]2c3ccccc3CC[C@@H]2N2CCC[C@@H](N)C2)c(Br)c1 (racemic) [Example 35, (R)-1-[rac-trans-(1,2)-1-(2-bromo-4-methylphenoxy)-1,2,3,4-tetrahydronaphthalen-2-yl]piperidin-3-ylamine]
–	20 to 50	Cc1ccc(O[C@H]2c3ccccc3CC[C@@H]2N2CCC[C@@H](N)C2)cc1Cl (racemic) [Example 53, (R)-1-[rac-trans-(1,2)-1-(3-chloro-4-methylphenoxy)-1,2,3,4-tetrahydronaphthalen-2-yl]piperidin-3-ylamine]
1000 to 10000	–	N#Cc1c(F)cccc1O[C@@H]1c2ccccc2C[C@H]1N1C[C@H]2CNC[C@H]2C1 (racemic) [Example 398, 2-fluoro-6-[rac-trans-(1,2)-2-(hexahydropyrrolo[3,4-c]pyrrol-2-yl)indan-1-yloxy]benzonitrile]
< 1000	–	CS(=O)(=O)c1ccc(O[C@H]2c3cc(Cl)cc(Cl)c3C[C@@H]2N2CCC3(CCNC3)C2)cc1 (mixture of isomers) [Example 378, 2-[trans-(1S,2S)-4,6-dichloro-1-(4-methanesulfonylphenoxy)indan-2-yl]-2,7-diaza-spiro[4.4]nonane]
1000 to 10000	–	N#Cc1ccc(O[C@H]2c3ccccc3C[C@@H]2N2CCCC2)cc1 (racemic) [Example 468, 4-(rac-trans-(1,2)-2-pyrrolidin-1-ylindan-1-yloxy)benzonitrile]
–	20 to 50	CN(C)C[C@@H]1Cc2ccccc2[C@H]1Oc1ccc(S(C)(=O)=O)cc1 (racemic) [Example 244]
< 1000	–	Cc1nnc(C)n1-c1ccc(O[C@H]2c3cc(Cl)cc(Cl)c3C[C@@H]2N2CCCNCC2)cc1 [Example 347, 1-{trans-(1S,2S)-4,6-dichloro-1-[4-(3,5-dimethyl-[1,2,4]triazol-4-yl)phenoxy]indan-2-yl}-[1,4]diazepane]
1000 to 10000	–	Cc1nnc(C)n1-c1ccc(O[C@H]2c3ccccc3C[C@@H]2N2CCC[C@@H](N)C2)cc1 [Example 121, (R)-1-{trans-(1S,2S)-1-[4-(3,5-dimethyl-[1,2,4]triazol-4-yl)phenoxy]indan-2-yl}piperidin-3-ylamine]
< 1000	–	Cc1nnc(C)n1-c1ccc(O[C@H]2c3cc(Cl)cc(Cl)c3C[C@@H]2N2CCCNCC2)c(Cl)c1 [Example 344, 1-{trans-(1S,2S)-4,6-dichloro-1-[2-chloro-4-(3,5-dimethyl-[1,2,4]triazol-4-yl)phenoxy]indan-2-yl}-[1,4]diazepane]
–	20 to 50	COc1cccc(CC#N)c1O[C@H]1c2ccccc2CC[C@@H]1N1CCC[C@@H](N)C1 (racemic) [Example 229, {2-[rac-trans-(1,2)-2-((R)-3-aminopiperidin-1-yl)-1,2,3,4-tetrahydronaphthalen-1-yloxy]-3-methoxyphenyl}acetonitrile]
< 1000	–	NS(=O)(=O)c1ccc(OC2c3ccccc3CC2N2CCCC2)c(Cl)c1Cl (racemic) [Example 357, 2,3-dichloro-4-(rac-trans-(1,2)-2-pyrrolidin-1-ylindan-1-yloxy)benzenesulfonamide]
–	20 to 50	Cc1cc(C)n(-c2ccc(O[C@H]3c4cc(Cl)cc(Cl)c4C[C@@H]3N3CC[C@@H](O)C3)c(F)c2)n1 [Example 136, (R)-1-{trans-(1S,2S)-4,6-dichloro-1-[4-(3,5-dimethylpyrazol-1-yl)-2-fluorophenoxy]indan-2-yl}pyrrolidin-3-ol]
1000 to 10000	–	Cc1nn(-c2ccc(O[C@H]3c4cc(Cl)cc(Cl)c4C[C@@H]3N3CC[C@@H](O)C3)cc2)c(=O)o1 [Example 733, 3-{4-[trans-(1S,2S)-4,6-Dichloro-2-((R)-3-hydroxy-pyrrolidin-1-yl)-indan-1-yloxy]-phenyl}-5-methyl-3H-[1,3,4]oxadiazol-2-one]
1000 to 10000	–	CCN(CC)[C@@H]1Cc2ccccc2[C@H]1Oc1ccc2c(c1)C(C)C(=O)N2C (mixture of isomers) [Example 568, 5-(rac-trans-(1,2)-2-diethylaminoindan-1-yloxy)-1,3-dimethyl-1,3-dihydroindol-2-one]
–	20 to 50	CCC(=O)c1cc(F)c(O[C@H]2c3ccccc3CC[C@@H]2N2CCC[C@H](N)C2)c(F)c1 (racemic) [Example 327, 1-{4-[rac-trans-(1,2)-2-((S)-3-aminopiperidin-1-yl)-1,2,3,4-tetrahydronaphthalen-1-yloxy]-3,5-difluorophenyl}propan-1-one]
< 1000	–	Cc1c(O[C@H]2c3ccccc3C[C@@H]2N2CCCC2)ccc(-n2c(C)nnc2C)c1C (racemic) [Example 488, 4-[2,3-dimethyl-4-(rac-trans-(1,2)-2-pyrrolidin-1-ylindan-1-yloxy)phenyl]-3,5-dimethyl-4H-[1,2,4]triazole]
–	20 to 50	CN(C)C(=O)Cc1ccc(O[C@H]2c3ccccc3CC[C@@H]2N2CCC[C@@H](N)C2)cc1 (racemic) [Example 380, 2-{4-[rac-trans-(1,2)-2-((R)-3-aminopiperidin-1-yl)-1,2,3,4-tetrahydronaphthalen-1-yloxy]phenyl}-N,N-dimethylacetamide]
–	20 to 50	N[C@H]1CCCN([C@H]2CCc3ccccc3[C@@H]2Oc2cccc(OC(F)F)c2)C1 (racemic) [Example 166, (S)-1-[rac-trans-(1,2)-1-(3-difluoromethoxyphenoxy)-1,2,3,4-tetrahydronaphthalen-2-yl]piperidin-3-ylamine]
1000 to 10000	–	NCC1CCN([C@@H]2Cc3ccccc3[C@H]2Oc2cccc(N3CCNCC3)c2)C1 (mixture of isomers) [Example 617, C-{1-[rac-trans-(1,2)-1-(3-piperazin-1-ylphenoxy)indan-2-yl]pyrrolidin-3-yl}methylamine]
–	20 to 50	Cc1ccc(O[C@H]2c3ccccc3CC[C@@H]2N2CCC[C@@H](N)C2)c(Cl)c1 (racemic) [Example 38, (R)-1-[rac-trans-(1,2)-1-(2-chloro-4-methylphenoxy)-1,2,3,4-tetrahydronaphthalen-2-yl]piperidin-3-ylamine]
